Test results from article PMC6373292 (Pharmaceutical Research, 2019).
“Also recorded” adds a separate entry of the source.

How the values were obtained:
[1] = tested on: porcine subcutaneous arteries; assay: Ex vivo vasorelaxation of U46619-preconstricted arteries (wire myograph); design: species or system pig; details: isolated porcine subcutaneous arteries preconstricted with U46619 (1 μM); for Effect on vascular tone (vasorelaxation): niacinamide at 200 mM, 1-methyl-niacinamide cumulative concentrations, two animals
Experimental: Vessels were cut into 1.5 mm cylindrical segments, threaded onto two 40 μm diameter stainless steel wires and mounted on a Mulvany-Halpern myograph (Danish Myograph Technology, A/S). […] Contractile force was recorded via a PowerLab unit and Labchart software (AD Instruments). Vessels were pre-stretched in calcium-free PSS to a lumen diameter of 0.9 × L100, where L100 is an estimate of the diameter of the vessel under a passive transmural pressure of 100 mmHg. This was performed using the normalization module in LabChart7.

[2] = tested on: regional subcutaneous blood flow; assay: Xenon-133 washout after injection into the neck of pigs; assay type: in vivo, pig; details: vehicle without insulin aspart, niacinamide 170 mM (n=21), prostaglandin E1 4 μg/ml (n=8), mean (±SD), saline –0.71
Experimental: For each experiment, an insulin aspart containing vehicle was injected on one side of a pig, while the same vehicle without insulin aspart was injected into the other side. Prostaglandin E1 was included as a positive control. A gamma sensor was mounted over each injection site to measure the decay in Xe-133 signal. […] Regression line slopes in the 0–15 min interval were compared using one-way analysis of variance (ANOVA).

[3] = tested on: skin perfusion; assay: Laser speckle contrast analysis (LASCA) of skin perfusion in pigs; assay type: in vivo, pig; details: anesthetized pigs, intradermal injection in neck, niacinamide 170 mM, 1-methyl-niacinamide 170 mM, prostaglandin E1 10 μg/ml, 0–15 min, n=4
Experimental: Formulations of prostaglandin E1 (10 μg/ml), niacinamide (170 mM) or saline were injected intradermally in the neck area of anesthetized pigs. A PeriCam PSI system (Perimed, Sweden) was used to record one image per second for approximately 15 min. Perfusion units per min were compared using one-way ANOVA.
Niacinamide increases subcutaneous blood flow in pigs
Video: Representative LASCA perfusion experiment.
LASCA images were recorded following intradermal injection of saline, prostaglandin E1 and niacinamide formulations into the neck area of anesthetized pigs. Saline (170 mM NaCl, 10 mM phosphate, pH 7.4) was injected into region 1 (blue) and 6 (black), 10 µg/ml prostaglandin E1 (170 mM NaCl, 10 mM phosphate, pH 7.4) was injected into region 2 (red), 170 mM niacinamide (85 mM NaCl, 10 mM phosphate, pH 7.4) was […]
was necessary). Compound x (region 4, dark red) was an additional compound studied for vasodilation but is not included in the present analysis.
(1 picture or pasted object on this page, not shown here)

[4] = tested on: skin perfusion; assay: Laser Doppler imaging (LDI) of skin perfusion in pigs; assay type: in vivo, pig; details: anesthetized pigs, subcutaneous injection at 3 mm depth, niacinamide 170 mM, prostaglandin E1 10 μg/ml, baseline corrected, n=4
Experimental: LDI (moorLDI2-IR, Moor Instruments, UK) was used to record a series of images (approximately one image per 3.5 min for approximately 30 min) following a protocol in anesthetized pigs similar to the one used for LASCA. Due to the increased skin penetration depth of the LDI system, subcutaneous injections were performed at a 3 mm depth using a 32G needle. Injections were performed in areas that could be scanned in the same image.

[5] = Disappearance of niacinamide and 1-methyl-niacinamide from subcutaneous injection depots in pigs (tissue sampling, LC-MS/MS); details: 170 mM, 50 μl, LC-MS/MS of tissue homogenate, n=9
Experimental: Pigs (70–90 kg) were anesthetized using Zoletil mixture (1 mg/10 kg; Virbac, Denmark) with intravenous supplement of propolipid (Fresenius Kabi, Sweden). […] Tissue samples measuring ~2 x 2 cm were excised at 0 min (acute), 2, 5, 15 or 60 min after injection and immediately frozen in 2-methyl-butane. […] Following euthanasia by overdose of pentobarbital (Lundbeck, Denmark), tissue samples measuring ~10 x 10 cm were excised and injected to obtain ex vivo 0 min (acute) and 60 min depots.
Tissue samples were cut into smaller blocks, thawed and diluted with phosphate buffer (180 mM; pH 7.4) at a ratio of 3 ml to 1 g of tissue. Tissue was homogenized with two cycles (one cycle consisting of 10 sec homogenization, 60 sec pause, 10 sec homogenization) at 8800 rpm (Precellys Evolution homogenizer, Bertin Instruments, France) or until the sample was considered homogenized.
Protein was precipitated from the tissue homogenate by adding three volumes of acetonitrile. Samples were centrifuged for 30 min at 4°C and the supernatants analyzed on a QTRAP® Triple Quadrupole coupled with an Acquity liquid chromatography system (Waters, USA).

SMILES	EC50 ([1]; Sus scrofa, sc, cumulative 1 μM–200 mM, PSS 37°C pH 7.4, six animals) [mM]	Effect on vascular tone (vasorelaxation) [1]	Xe-133 washout regression line slope, 0–15 min interval [2]	Skin perfusion by LASCA compared with saline [3]	Skin perfusion by LDI compared with saline [4]	Amount remaining in subcutaneous depot 60 min post-injection [5]
NC(=O)c1cccnc1 [niacinamide]	11.3	maximal vasorelaxation	–1.24 % per min	intermediate increase	increased skin perfusion	decreased to amounts comparable to the blank control
CCCCC[C@H](O)/C=C/[C@H]1[C@H](O)CC(=O)[C@@H]1CCCCCCC(=O)O [prostaglandin E1]	–	–	–2.47 % per min	clear increase in skin perfusion	increased skin perfusion	–
C[n+]1cccc(C(N)=O)c1 [1-methyl-niacinamide]	–	no substantial effect on vascular tone; also recorded: vasorelaxation was not detected	–	did not increase the LASCA signal	–	–
